From PubChem BioAssay (NCI)
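1) Cells in 96-well plates. 2) Compound, 48 h, 5 concentrations. 3) Linear interpolation between surrounding doses. 4) Unreached endpoint = highest concentration. The concentration for 50% growth inhibition is given as GI50. Definition used: TGI = concentration required for complete inhibition of growth.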

What was measured:
Assay in all cases: growth of human tumour cells (NCI), 48 h
[1] = test system: 786-0 renal
[2] = test system: A498 renal
[3] = test system: A549 NSCLC
[4] = test system: ACHN renal
[5] = test system: BT-549 breast
[6] = test system: CAKI-1 renal
[7] = test system: CCRF-CEM leukemia
[8] = test system: COLO 205 colon
[9] = test system: DU-145 prostate
[10] = test system: EKVX NSCLC
[11] = test system: HCC-2998 colon
[12] = test system: HCT-116 colon
[13] = test system: HCT-15 colon
[14] = test system: HL-60(TB) leukemia
[15] = test system: HOP-62 NSCLC
[16] = test system: HOP-92 NSCLC
[17] = test system: HS 578T breast
[18] = test system: HT29 colon
[19] = test system: IGROV1 ovarian
[20] = test system: K-562 leukemia
[21] = test system: KM12 colon
[22] = test system: LOX IMVI melanoma
[23] = test system: M14 melanoma
[24] = test system: MALME-3M melanoma
[25] = test system: MCF7 breast
[26] = test system: MDA-MB-231 breast
[27] = test system: MDA-MB-435
[28] = test system: MOLT-4 leukemia
[29] = test system: NCI-H226 lung
[30] = test system: NCI-H23 lung
[31] = test system: NCI-H460 lung
[32] = test system: NCI-H522 lung
[33] = test system: NCI/ADR-RES ovarian
[34] = test system: OVCAR-4 ovarian
[35] = test system: OVCAR-5 ovarian
[36] = test system: OVCAR-8 ovarian
[37] = test system: PC-3 prostate
[38] = test system: RPMI-8226 leukemia
[39] = test system: RXF 393 renal
[40] = test system: SF-268 CNS
[41] = test system: SF-295 CNS
[42] = test system: SF-539 CNS
[43] = test system: SK-MEL-2 melanoma
[44] = test system: SK-MEL-28 melanoma
[45] = test system: SK-MEL-5 melanoma
[46] = test system: SK-OV-3 ovarian
[47] = test system: SN12C renal
[48] = test system: SNB-19 CNS
[49] = test system: SNB-75 CNS
[50] = test system: SR leukemia
[51] = test system: SW-620 colon
[52] = test system: TK-10 renal
[53] = test system: U251 CNS
[54] = test system: UACC-257 melanoma
[55] = test system: UACC-62 melanoma
[56] = test system: UO-31 renal
[57] = test system: OVCAR-3 ovarian

CCN1C(=O)N(CC)C2SC(N/N=C/C=C/c3ccccc3OC)=NC21 (stereo unspecified)
GI50 [1]: 0.758 µM
TGI [1]: 18.9 µM
GI50 [2]: 0.188 µM
TGI [2]: 0.636 µM
GI50 [3]: 0.75 µM
TGI [3]: > 100 µM
GI50 [4]: 0.744 µM
TGI [4]: > 100 µM
GI50 [5]: 0.353 µM
TGI [5]: 1.41 µM
GI50 [6]: 0.567 µM
TGI [6]: > 100 µM
GI50 [7]: 0.386 µM
TGI [7]: > 100 µM
GI50 [8]: 0.308 µM
TGI [8]: 0.951 µM
GI50 [9]: 0.704 µM
TGI [9]: > 100 µM
GI50 [10]: 1.12 µM
TGI [10]: > 100 µM
GI50 [11]: 0.853 µM
TGI [11]: 13.6 µM
GI50 [12]: 0.419 µM
TGI [12]: > 100 µM
GI50 [13]: 0.428 µM
TGI [13]: > 100 µM
GI50 [14]: 0.299 µM
GI50 [15]: 0.535 µM
TGI [15]: > 100 µM
GI50 [16]: 0.266 µM
TGI [16]: 4.3 µM
GI50 [17]: 0.321 µM
TGI [17]: > 100 µM
GI50 [18]: 0.346 µM
TGI [18]: 3.82 µM
GI50 [19]: 0.668 µM
TGI [19]: > 100 µM
GI50 [20]: 0.4 µM
TGI [20]: > 100 µM
GI50 [21]: 0.431 µM
TGI [21]: > 46.3 µM
GI50 [22]: 0.569 µM
TGI [22]: 26.9 µM
GI50 [23]: 0.313 µM
TGI [23]: 3.23 µM
GI50 [24]: 0.504 µM
TGI [24]: > 100 µM
GI50 [25]: 0.427 µM
TGI [25]: > 100 µM
GI50 [26]: 1.5 µM
TGI [26]: 38.6 µM
GI50 [27]: 0.224 µM
TGI [27]: 0.56 µM
GI50 [28]: 0.652 µM
TGI [28]: > 100 µM
GI50 [29]: 0.562 µM
TGI [29]: > 100 µM
GI50 [30]: 0.614 µM
TGI [30]: > 100 µM
GI50 [31]: 0.379 µM
TGI [31]: 13.1 µM
GI50 [32]: 0.236 µM
TGI [32]: 0.703 µM
GI50 [33]: 0.495 µM
TGI [33]: > 100 µM
GI50 [34]: 20.3 µM
TGI [34]: > 100 µM
GI50 [35]: 1.3 µM
TGI [35]: > 100 µM
GI50 [36]: 0.588 µM
TGI [36]: 7.14 µM
GI50 [37]: 0.474 µM
TGI [37]: > 72.5 µM
GI50 [38]: 0.398 µM
TGI [38]: 18.2 µM
GI50 [39]: 0.35 µM
TGI [39]: 8.9 µM
GI50 [40]: 2.51 µM
TGI [40]: > 100 µM
GI50 [41]: 0.371 µM
TGI [41]: > 55.1 µM
GI50 [42]: 0.305 µM
TGI [42]: 2.94 µM
GI50 [43]: 0.672 µM
TGI [43]: 18.1 µM
GI50 [44]: 1.51 µM
TGI [44]: > 100 µM
GI50 [45]: 0.525 µM
TGI [45]: 9.17 µM
GI50 [46]: 0.528 µM
TGI [46]: > 100 µM
GI50 [47]: 0.991 µM
TGI [47]: > 76.6 µM
GI50 [48]: 0.538 µM
TGI [48]: > 100 µM
GI50 [49]: 0.265 µM
TGI [49]: > 100 µM
GI50 [50]: 0.351 µM
TGI [50]: > 100 µM
GI50 [51]: 0.383 µM
TGI [51]: > 100 µM
GI50 [52]: 19.4 µM
TGI [52]: > 96.6 µM
GI50 [53]: 0.4 µM
TGI [53]: 16.9 µM
GI50 [54]: 0.838 µM
TGI [54]: > 100 µM
GI50 [55]: 0.405 µM
TGI [55]: > 100 µM
GI50 [56]: 0.73 µM
TGI [56]: > 100 µM

CNC(=O)c1cc(Oc2ccc3nc(NC(=O)c4ccc(CN5CCCN(C)CC5)c(C(F)(F)F)c4)sc3c2)ccn1
GI50 [1]: 1.25 µM
TGI [1]: 2.55 µM
GI50 [2]: 1.96 µM
TGI [2]: 3.38 µM
GI50 [3]: 1.64 µM
TGI [3]: 3.08 µM
GI50 [4]: 1.72 µM
TGI [4]: 3.09 µM
GI50 [5]: 1.68 µM
TGI [5]: 3.14 µM
GI50 [6]: 1.52 µM
TGI [6]: 2.9 µM
GI50 [7]: 1.8 µM
TGI [7]: 4.06 µM
GI50 [8]: 1.39 µM
TGI [8]: 2.78 µM
GI50 [9]: 1.7 µM
TGI [9]: 3.28 µM
GI50 [10]: 1.7 µM
TGI [10]: 3.14 µM
GI50 [11]: 1.88 µM
TGI [11]: 3.36 µM
GI50 [12]: 1.16 µM
TGI [12]: 2.4 µM
GI50 [13]: 0.959 µM
TGI [13]: 2.24 µM
GI50 [14]: 1.35 µM
TGI [14]: 2.94 µM
GI50 [15]: 1.61 µM
TGI [15]: 3.08 µM
GI50 [16]: 1.36 µM
TGI [16]: 3 µM
GI50 [17]: 1.48 µM
TGI [17]: 3.8 µM
GI50 [18]: 0.387 µM
TGI [18]: 1.48 µM
GI50 [19]: 1.74 µM
TGI [19]: 3.4 µM
GI50 [20]: 0.331 µM
TGI [20]: 1.46 µM
GI50 [21]: 1.68 µM
TGI [21]: 3.21 µM
GI50 [23]: 1.22 µM
TGI [23]: 2.65 µM
GI50 [24]: 1.4 µM
TGI [24]: 2.84 µM
GI50 [27]: 1.48 µM
TGI [27]: 2.88 µM
GI50 [28]: 1.46 µM
TGI [28]: 3.1 µM
GI50 [31]: 1.65 µM
TGI [31]: 3.14 µM
GI50 [32]: 1.74 µM
TGI [32]: 3.31 µM
GI50 [33]: 1.68 µM
TGI [33]: 3.53 µM
GI50 [57]: 1.85 µM
TGI [57]: 3.41 µM
GI50 [34]: 1.6 µM
TGI [34]: 3.11 µM
GI50 [35]: 1.64 µM
TGI [35]: 3.07 µM
GI50 [36]: 1.67 µM
TGI [36]: 3.18 µM
GI50 [37]: 1.48 µM
TGI [37]: 3.24 µM
GI50 [38]: 0.694 µM
TGI [38]: 2.6 µM
GI50 [39]: 1.07 µM
TGI [39]: 2.27 µM
GI50 [41]: 1.76 µM
TGI [41]: 3.22 µM
GI50 [42]: 1.1 µM
TGI [42]: 2.32 µM
GI50 [43]: 1.78 µM
TGI [43]: 3.38 µM
GI50 [44]: 1.3 µM
TGI [44]: 2.64 µM
GI50 [45]: 1.59 µM
TGI [45]: 2.98 µM
GI50 [46]: 1.76 µM
TGI [46]: 3.27 µM
GI50 [47]: 1.73 µM
TGI [47]: 3.3 µM
GI50 [49]: 1.22 µM
TGI [49]: 2.48 µM
GI50 [50]: 0.502 µM
TGI [50]: 2.15 µM
GI50 [51]: 1.7 µM
TGI [51]: 3.19 µM
GI50 [52]: 2.4 µM
TGI [52]: 4.03 µM
GI50 [53]: 1.44 µM
TGI [53]: 2.8 µM
GI50 [54]: 1.57 µM
TGI [54]: 2.95 µM
GI50 [55]: 1.69 µM
TGI [55]: 3.32 µM
GI50 [56]: 1.35 µM
TGI [56]: 2.71 µM
